Source: patent US6677354B2, “Piperdines for use as orexin receptor antagonists” (SmithKline Beecham p.l.c., priority 2000, dated 2004)

Assays:
[1] = system: food intake in freely-feeding rats; details: central administration, 4 hour time period; cited from earlier work
orexin receptors = experiment: Rat sleep/EEG studies after central administration; assay type: in vivo; details: central administration at the onset of the normal sleep period
Description: Therefore antagonists of its receptor may be useful in the treatment of sleep disorders including insomnia.

For “orexin-A: "orexin-A, an agonist of the orexin receptors"; "Human orexin-A has the amino acid sequence: pyroGlu Pro Leu Pro Asp Cys Cys Arg Gln Lys Thr Cys..."”, the “increase in food intake over control rats receiving vehicle” value [1] is given as “approximately four-fold” and the “effect on arousal and sleep” value (orexin receptors) is given as “dose-related increase in arousal”.
